Assay results: PubChem BioAssay (NCI)
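Following 48 hours of exposure in 96-well plates, responses at five concentrations were used to interpolate endpoints linearly. At the GI50, growth is halved. Definition used: TGI = concentration required for complete inhibition of growth.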

Assays:
Assay in all cases: growth of human tumour cells (NCI), 48 h
[1] = test system: HCC-2998 colon
[2] = test system: HCT-116 colon
[3] = test system: MALME-3M melanoma
[4] = test system: MOLT-4 leukemia
[5] = test system: NCI/ADR-RES ovarian
[6] = test system: OVCAR-5 ovarian
[7] = test system: SK-MEL-5 melanoma
[8] = test system: SK-OV-3 ovarian
[9] = test system: T-47D breast
[10] = test system: UACC-257 melanoma

| Structure (SMILES) | TGI [1] [µM] | TGI [2] [µM] | TGI [3] [µM] | TGI [4] [µM] | TGI [5] [µM] | TGI [6] [µM] | TGI [7] [µM] | TGI [8] [µM] | TGI [9] [µM] | TGI [10] [µM] | GI50 [1] [µM] | GI50 [2] [µM] | GI50 [3] [µM] | GI50 [4] [µM] | GI50 [5] [µM] | GI50 [6] [µM] | GI50 [7] [µM] | GI50 [8] [µM] | GI50 [9] [µM] | GI50 [10] [µM] |
| --- | --- | --- | --- | --- | --- | --- | --- | --- | --- | --- | --- | --- | --- | --- | --- | --- | --- | --- | --- | --- |
| O=C(O)c1ccccc1C(=O)Nc1cc2c(cc1Br)-c1ccccc1C2=O | 58 | > 100 | > 100 | > 100 | > 100 | > 100 | > 100 | > 100 | > 100 | > 100 |  |  |  |  |  |  |  |  |  |  |
| Nc1nc(N)c2cc(S(=O)(=O)c3ccccc3)ccc2n1 | 32.2 | > 100 | > 100 | > 100 | > 100 | > 100 | > 100 | > 100 | > 100 | > 100 | 2.38 | 0.501 | 4.97 | 4.31 | 3.52 | 2.21 | 1.14 | 5.41 | 9.57 | 14.9 |
| Cc1nc2sc(C(=O)Nc3cccc(Cl)c3C)c(N)c2cc1C(O)c1ccccc1 (stereo not drawn) | 2.36 | 10.9 | 18.5 | 19.7 | 1.64 | 46.5 | 1.11 | 33.4 | 57.6 | 22.9 | 0.106 | 0.0404 | 0.0536 | 0.0673 | 0.0318 | 0.14 | 0.0528 | 0.0697 | 0.0396 | 1.27 |
| CC(=O)OCCC/C(=C/c1cc2ccccc2c2ccccc12)[N+](=O)[O-] | 3 | 2.8 | 3.38 | > 23 | 4.31 | 3.11 | 2.96 | 7.38 | 1.87 | 2.76 | 1.64 | 1.48 | 1.55 | 2.86 | 1.99 | 1.68 | 1.61 | 2.56 | 0.384 | 1.43 |
| COc1ccc2c3c1OC1C4(CCC5C(C2)N(CC2CC2)CCC351)OCCO4 (stereo not drawn) | > 100 | > 100 | > 100 | > 100 | > 100 | > 100 | > 100 | > 100 | > 100 | > 100 |  |  |  |  |  |  |  |  |  |  |
| CCOc1cc(CCNC)c2c(ccc3ccc(OC)c(O)c32)c1OC | 30 | 22.1 | 20 | 26.4 | 48.2 | 29.5 | 26.1 | 27.5 | 51.1 | 29.6 |  |  |  |  |  |  |  |  |  |  |
| CN1CCC(n2cnc(-c3ccc(F)cc3)c2-c2ccnc(Nc3ccccc3)n2)CC1 | > 25 | > 25 | 12.4 | > 25 | > 25 | > 25 | 9.43 | > 25 | > 25 | 9.25 | 6.76 | 7.27 | 4.77 | 12 | 7.65 | 15 | 4.14 | 3.81 | 6.85 | 4.22 |
| CCN1Cc2c(/C=C/c3ccccc3)nc3ccc(OC)cc3c2N(c2cccc(Cl)c2)C1 | 3.14 | 3.8 | 3.52 | 5.02 | 5.22 | 2.97 | 3 | 4.4 | 4.18 | 4.22 | 1.64 | 1.67 | 1.68 | 1.45 | 2.1 | 1.49 | 1.59 | 1.88 | 1.74 | 1.75 |
| CCCCc1n(Cc2ccc3ccccc3n2)cc[n+]1Cc1ccc2ccccc2c1 | 2.01 | 2.11 | 2.21 | 3.61 | > 100 | 8.48 | 1.33 | 4.33 | 2.57 | 1.62 | 0.641 | 0.639 | 0.643 | 1.06 | 24.2 | 1.54 | 0.559 | 1.47 | 0.337 | 0.438 |
| C=C(C)[C@@H]1CC[C@]2(COC(=O)c3ccccc3C(=O)O)CC[C@]3(C)[C@H](CC[C@@H]4[C@@]5(C)CC[C@H](OC(=O)c6ccccc6C(=O)O)C(C)(C)[C@@H]5CC[C@]43C)[C@@H]12 | > 100 | > 100 | > 100 | > 100 | > 100 | > 100 | > 100 | > 100 | 75.8 | > 100 | 74.3 | 33.1 | 60.8 | 56.7 | 67.6 | > 100 | 99.2 | 35.8 | 19.7 | 71.3 |
| COc1ccc(C(=O)c2cc(C)c(OC)c(C)c2)c(OC)c1OC(=O)C(Cl)Cl | > 23.6 | > 100 | > 100 | > 100 | > 100 | > 100 | 0.326 | > 100 | > 100 | > 100 | 0.178 | 0.0976 | 0.0714 | 0.0436 | 0.0324 | 5.51 | 0.0521 | 0.163 | 6.37 | 25.6 |
| CCN(CC)CCOc1ccccc1-n1c(C)ccc1-c1ccccc1 | 28.5 | 25.8 | 36.6 | 33.3 | 29.9 | 30.1 | 25.9 | 31.4 | 34.7 | 31.8 | 13.9 | 12 | 19.2 | 13.9 | 13.9 | 15.7 | 12.8 | 17.3 | 15.7 | 16.2 |
| COc1cc(NC(=O)c2cc3ccccc3cc2O)c(OC)cc1Cl | 7.72 | 11.1 | 2.87 |  | 6.03 | 10.6 | 2.93 | 3.94 | 6.15 | 5.55 | 2.68 | 2.48 | 0.335 | 2.27 | 1.99 | 2.25 | 1.38 | 1.39 | 1.8 | 2.05 |
| Cn1c(=S)c2[nH]c(SCc3cccnc3)nc2n(C)c1=O | > 100 | > 100 | > 100 | > 100 | > 100 | > 100 | > 100 | > 100 | > 100 | > 100 |  |  |  |  |  |  |  |  |  |  |
| COC(=O)C(Br)(C(=O)OC)C(Br)C(Br)C(Br)c1ccccc1 (stereo not drawn) | 32 | 3.01 | 4.46 | 19.7 | 9.99 | 13 | 7.27 | 31.9 | 8.06 | 4.4 | 17.5 | 1.61 | 2.09 | 4.24 | 3.28 | 3.3 | 2.71 | 16.8 | 2.47 | 1.88 |
| COc1ccc(-n2nc(C(=O)NCC(=O)Nc3nc4cc(OC)ccc4s3)c3ccccc3c2=O)cc1 | 7.89 | > 100 | 2.8 | > 100 |  | > 20.7 | > 42.7 | 4.93 | 5.81 | 5.07 | 0.589 | 1.64 | 0.589 | > 100 | 1.35 | 2.32 | 1.55 | 1.83 | 0.927 | 1.28 |
| Clc1ccc2c(NCCNc3nc(N4CCCCC4)nc4ccccc34)ccnc2c1 | 6.26 | 1.63 | 4.05 | 11.8 | > 100 | 10.1 | 3.31 | 7.64 | 6.11 | 3.77 | 2.22 | 0.441 | 2.05 | 2.29 | 3.5 | 2.68 | 1.86 | 2.58 | 2.17 | 1.94 |
| Nc1n[nH]c2cc(F)c([C@@H]3Nc4c(F)cc5[nH]ncc5c4[C@H]4C5CCC(C5)[C@@H]34)cc12 (stereo partly drawn) | 4.5 | 1.56 | 14.3 | 14.1 | 5.67 | 8.52 | 0.538 | 20.7 | 26.6 | 23.3 | 0.118 | 0.118 | 0.948 | 0.145 | 0.14 | 0.175 | 0.114 | 0.275 | 5.89 | 5.16 |
| COc1ccccc1C(=O)Nc1ccc(Cl)c(C(=O)OC(C)C)c1 | > 100 | > 95 | > 100 | > 76.5 | 64.4 | > 83.4 | > 54.8 | > 100 | 60.1 | > 77.1 |  |  |  |  |  |  |  |  |  |  |
| COc1ccc2c(ccc3oc([N+](=O)[O-])cc32)c1 | 0.418 | 0.92 | 0.314 | 2.69 | 1.05 | 4.74 | 0.142 | 1.84 | 8.05 | 0.43 | 0.177 | 0.0487 | 0.137 | 0.0378 | 0.177 | 0.364 | 0.0413 | 0.231 | 0.448 | 0.137 |
